The term inhibition denotes the change of the read-out against control, counted positive when it falls.

Experiment [1] has as its system Jeko. The experiment is described as follows: MTS cell proliferation assay, Jeko. It counts as cell-based. To be noted: Homo sapiens, 72 hr. Here is the method:
(§1) Cell proliferation was measured using the CellTiter 96 Aqueous Non-Radioactive Cell Proliferation Assay (Promega). The CellTiter 96® AQueous Assay is composed of solutions of a tetrazolium compound [3-(4,5-dimethylthiazol-2-yl)-5-(3-carboxymethoxyphenyl)-2-(4-sulfophenyl)-2H-tetrazolium, inner salt; MTS] and an electron coupling reagent (phenazine methosulfate) PMS. MTS is bioreduced by cells into a formazan product that is soluble in tissue culture medium. The absorbance of the formazan product at 490 nm can be measured directly from assay plates without additional processing. The quantity of formazan product as measured by the amount of 490 nm absorbance is directly proportional to the number of living cells in culture. Cells were seeded into 96-well or 384-well clear plates in a volume of 200 μL (96-well) or 50 μL (384-well) at optimized densities ranging from 1,000 to 40,000 cells per well for 96-well plates or 1,200 to 25,000 cells per well for 384-well plates depending on cell-line. After 4-6 hr recovery, serially diluted compounds in DMSO were added to the cells using (0.1% v/v final DMSO concentration). Cells were then grown at 37° C. in a humidified incubator with 5% CO2 for 72 hr. A 20:1 [3-(4,5-dimethylthiazol-2-yl)-5-(3-carboxymethoxyphenyl)-2-(4-sulfophenyl)-2H-tetrazolium](MTS):phenazine methosulfate (PMS) solution in DPBS was made immediately before use, added to each well, and cells were incubated for 1.5 hr at 37° C. The absorbance at 490 nm was then measured using a platereader. Absorbance values were normalized as percent of control (cells incubated in the presence of 0.1% v/v DMSO). Sigmoidal dose-response curves were plotted using log(inhibitor) vs. response—Variable slope (four parameters) model with a top value constrained to 100% (GraphPad Prism version 6.00 for Windows, GraphPad Software, La Jolla California USA). […] Curves for compounds that reached a plateau were matched exactly to the measurement points. […] To determine potential of compounds of the invention to affect viability of hematological cancers, cell lines representing various tumor types were selected and tested. Human cell lines tested were: MOLM-13 (acute myeloid leukemia (AML)), MV4-11 (AML), U-2932 (ABC-diffuse large B cell lymphoma), U-937 (histiocytic lymphoma), U-266 (multiple myeloma), RPMI-8226 (multiple myeloma), CMK (megakaryoblastic cell line), SU-DHL-4 (GCB-diffuse large B cell lymphoma), KG1 (AML), Mec-1 (chronic B-cell leukemia), MOLM-16 (AML), Jeko (B-cell lymphoma), WSU-DLCL2 (B-cell lymphoma), JJN3 (plasma cell leukemia), SU-DHL-6 (GCB-diffuse large B cell lymphoma), and Z-138 (mantle cell lymphoma). In addition, two murine cell lines were tested: A20 […].
In general terms: Tetrazolium assays rely on reduction of a dye to a coloured formazan, in cell work by metabolically active cells.

Experiment [2] concerns JJN3. The experiment is described as follows: MTS cell proliferation assay, JJN3. It counts as cell-based. To be noted: Homo sapiens, JJN-3; JJN3, 72 hr. The procedure:
(§2) Cell proliferation was measured using the CellTiter 96 Aqueous Non-Radioactive Cell Proliferation Assay (Promega). The CellTiter 96® AQueous Assay is composed of solutions of a tetrazolium compound [3-(4,5-dimethylthiazol-2-yl)-5-(3-carboxymethoxyphenyl)-2-(4-sulfophenyl)-2H-tetrazolium, inner salt; MTS] and an electron coupling reagent (phenazine methosulfate) PMS. MTS is bioreduced by cells into a formazan product that is soluble in tissue culture medium. The absorbance of the formazan product at 490 nm can be measured directly from assay plates without additional processing. The quantity of formazan product as measured by the amount of 490 nm absorbance is directly proportional to the number of living cells in culture. Cells were seeded into 96-well or 384-well clear plates in a volume of 200 μL (96-well) or 50 μL (384-well) at optimized densities ranging from 1,000 to 40,000 cells per well for 96-well plates or 1,200 to 25,000 cells per well for 384-well plates depending on cell-line. After 4-6 hr recovery, serially diluted compounds in DMSO were added to the cells using (0.1% v/v final DMSO concentration). Cells were then grown at 37° C. in a humidified incubator with 5% CO2 for 72 hr. A 20:1 [3-(4,5-dimethylthiazol-2-yl)-5-(3-carboxymethoxyphenyl)-2-(4-sulfophenyl)-2H-tetrazolium](MTS):phenazine methosulfate (PMS) solution in DPBS was made immediately before use, added to each well, and cells were incubated for 1.5 hr at 37° C. The absorbance at 490 nm was then measured using a platereader. Absorbance values were normalized as percent of control (cells incubated in the presence of 0.1% v/v DMSO). Sigmoidal dose-response curves were plotted using log(inhibitor) vs. response—Variable slope (four parameters) model with a top value constrained to 100% (GraphPad Prism version 6.00 for Windows, GraphPad Software, La Jolla California USA). […] Curves for compounds that reached a plateau were matched exactly to the measurement points. […]

The subject of experiment [3] is RPMI-8226. In words: MTS cell proliferation assay, RPMI-8226. It counts as cell-based. The following applies: Homo sapiens; RPMI-8226, 72 hr. The procedure:
as §1

Experiment [4] relates to C1498. In words: MTS cell proliferation assay, C1498. It counts as cell-based, murine. The following applies: Mus musculus; for EC50: C1498, 72 hr, read-out: MTS proliferation assay. The procedure: Cell proliferation was measured using the CellTiter 96 Aqueous Non-Radioactive Cell Proliferation Assay (Promega). […] MTS is bioreduced by cells into a formazan product that is soluble in tissue culture medium. The absorbance of the formazan product at 490 nm can be measured directly from assay plates without additional processing. The quantity of formazan product as measured by the amount of 490 nm absorbance is directly proportional to the number of living cells in culture. Cells were seeded into 96-well or 384-well clear plates in a volume of 200 μL (96-well) or 50 μL (384-well) at optimized densities ranging from 1,000 to 40,000 cells per well for 96-well plates or 1,200 to 25,000 cells per well for 384-well plates depending on cell-line. After 4-6 hr recovery, serially diluted compounds in DMSO were added to the cells using (0.1% v/v final DMSO concentration). Cells were then grown at 37° C. in a humidified incubator with 5% CO2 for 72 hr. A 20:1 [3-(4,5-dimethylthiazol-2-yl)-5-(3-carboxymethoxyphenyl)-2-(4-sulfophenyl)-2H-tetrazolium](MTS):phenazine methosulfate (PMS) solution in DPBS was made immediately before use, added to each well, and cells were incubated for 1.5 hr at 37° C. The absorbance at 490 nm was then measured using a platereader. Absorbance values were normalized as percent of control (cells incubated in the presence of 0.1% v/v DMSO). Sigmoidal dose-response curves were plotted using log(inhibitor) vs. response—Variable slope (four parameters) model with a top value constrained to 100% (GraphPad Prism version 6.00 for Windows, GraphPad Software, La Jolla California USA). […] To determine potential of compounds of the invention to affect viability of hematological cancers, cell lines representing various tumor types were selected and tested. […] In addition, two murine cell lines were tested: A20 […].

Experiment [5] relates to KG1. The experiment is described as follows: MTS cell proliferation assay, KG1. It counts as cell-based. To be noted: Homo sapiens, KG-1; KG1, 72 hr. Here is the method: as §2
Experiment [6] concerns CMK. The experiment is described as follows: MTS cell proliferation assay, CMK. It counts as cell-based. To be noted: Homo sapiens, 72 hr. Here is the method:
as §2

The target of experiment [7] is T1, Full-length phosphorylated PDK1 (Homo sapiens, UniProt O15530).
T1 sequence (O15530 1-556): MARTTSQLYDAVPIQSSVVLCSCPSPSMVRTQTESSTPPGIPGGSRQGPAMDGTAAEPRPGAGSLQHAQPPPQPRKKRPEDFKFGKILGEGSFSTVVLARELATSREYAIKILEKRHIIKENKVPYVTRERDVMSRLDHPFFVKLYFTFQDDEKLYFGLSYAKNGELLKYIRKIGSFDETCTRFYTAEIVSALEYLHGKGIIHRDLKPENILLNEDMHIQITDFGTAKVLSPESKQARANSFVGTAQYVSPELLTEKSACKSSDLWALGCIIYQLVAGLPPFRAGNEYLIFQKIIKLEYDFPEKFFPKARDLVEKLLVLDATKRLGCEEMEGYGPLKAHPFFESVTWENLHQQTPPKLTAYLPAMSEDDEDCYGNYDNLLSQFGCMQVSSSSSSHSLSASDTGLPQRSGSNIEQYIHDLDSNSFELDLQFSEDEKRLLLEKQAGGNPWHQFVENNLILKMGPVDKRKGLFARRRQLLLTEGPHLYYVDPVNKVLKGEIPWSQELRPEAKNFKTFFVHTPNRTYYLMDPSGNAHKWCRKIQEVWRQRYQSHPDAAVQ
In words: Fluorescence polarization PIF-tide binding assay. To be noted: PDK1 saturating amounts of compound, FIG. 13C. In general terms: Fluorescence polarisation rises when a labelled molecule tumbles more slowly, as on binding a larger partner.

For `C[C@H](NC(=O)c1nc(C#N)cnc1NCc1ccc(-c2cnc3[nH]nc(N)c3n2)cc1)c1ccc(F)c(F)c1` [Compound 1, 3-[4-(3-Amino-1H-pyrazolo[3,4-b]pyrazin-5-yl)-benzylamino]-6-cyano-pyrazine-2-carboxylic acid [1-(3,4-difluoro-phenyl)-ethyl]-amide], the EC50 stood at 286 nM in experiment [1]; 846 nM in experiment [2]; 174 nM in experiment [3]; 53 nM in experiment [4]; 175 nM in experiment [5]; 222 nM in experiment [6]. Further, the “PIF-tide binding to PDK1 (fluorescence polarization, words)” value in experiment [7] was “significant inhibition of PIF-tide binding”.

In the case of `CNc1n[nH]c2ncc(-c3ccc(CNc4ncc(C#N)nc4C(=O)N[C@@H](C)c4ccc(F)c(F)c4)cc3)cc12` [Compound 2, 6-Cyano-3-[4-(3-methylamino-1H-pyrazolo[3,4-b]pyridin-5-yl)-benzylamino]-pyrazine-2-carboxylic acid [1-(3,4-difluoro-phenyl)-ethyl]-amide], the EC50 came out at 279 nM in experiment [1]; 453 nM in experiment [2]; 163 nM in experiment [3]; 45 nM in experiment [4]; 195 nM in experiment [5]; 182 nM in experiment [6]. Besides, the inhibition at 0.2 µM in experiment [4] (C1498, 200 nM, read-out: growth inhibition) was determined as 80%. The “PIF-tide binding to PDK1 (fluorescence polarization, words)” value in experiment [7] is “significant inhibition of PIF-tide binding”.

Source of the values: US20240207258A1, “HETEROCYCLIC PDK1 INHIBITORS FOR USE TO TREAT CANCER” (Viracta Therapeutics, Inc., priority 2015, published 2024).
